Data: PMC12040169 (PLOS Biology, 2025)

Experiment: in vitro
Settings: human, hela cells, % viability

Structure (SMILES)	viability at 28.5 h, 10 µM [%]
COc1cnc(C(=O)NCCc2ccc(S(=O)(=O)NC(=O)NC3CCCCC3)cc2)cn1 [CBK011761]	104
Cc1nc(C2(O)CCCN(C3CCCC3)CC2)sc1COc1ccc(Cl)cc1 (stereo not drawn) [CBK285940]	122
O=C(NCCO)c1cccc(-c2cncc(NCCCN3CCOCC3)n2)c1 [CBK065432]	99.4
NS(=O)(=O)c1ccc(CCNC(=O)CN2C(=O)c3ccccc3C2=O)cc1 [CBK264377]	96
CCc1ccc(-c2ccc(-c3cc(C(=O)O)c4cc(Br)ccc4n3)o2)cc1 [CBK300543]	90.6
COC(=O)c1sc2ncccc2c1NS(=O)(=O)c1cc(Br)ccc1OC [CBK049971]	91.9
CC(=O)Nc1nnc(SCC(=O)NCc2ccc3c(c2)OCO3)s1 [CBK287626]	94
COc1ccc([C@@]23CCC(N)C[C@@H]2N(C)CC3)cc1OC (stereo partly drawn) [CBK003576]	114
Nc1nc(C2CC(N)C2)cc(N2CCC(Oc3ccccc3Cl)CC2)n1 (stereo not drawn) [CBK307356]	88.6
CCOc1ccc(NC(=O)c2c[nH]c(=O)n(-c3ccc(F)cc3)c2=O)cc1 [CBK287553]	107
O=C(Cn1c(NCCCO)nc2ccccc21)c1ccco1 [CBK264099B]	94.7
COc1ccc(CN(C)C(=O)CCc2c(C)nc3c(cnn3C(C)C)c2C)cc1 [CBK297087]	80.6
COc1ccc(-n2c(SCC(N)=O)nc3sc4c(c3c2=O)CC(C)(C)OC4)cc1 [CBK263232]	101
N#CCCn1cc(C(=O)N2CCOCC2)c(-c2cccs2)n1 [CBK306195]	110
CCCCNS(=O)(=O)c1ccc(Cl)c(Cl)c1 [CBK044309]	96.5
CCS(=O)(=O)N1CCCCCC1c1nn(C)cc1Cl (stereo not drawn) [CBK284672]	83.6
Cc1nn(C)cc1C(C)NC(=O)c1cn2cccc(C)c2n1 (stereo not drawn) [CBK281731]	92.1
O=C(O)CCSCC(=O)c1ccc(OC(F)F)cc1 [CBK286991]	84.6
Cc1cccn2c(=O)c(/C=C3\SC(=S)N(CCCC(=O)O)C3=O)c(N3CCC(C)CC3)nc12 [CBK264793]	107
COc1cc(C=Cc2nc3cc(Cl)ccc3s2)ccc1OCC(=O)O [CBK297886]	96.4
O=C1NC2(Nc3ccccc31)C(=O)N(Cc1cccc3ccccc13)c1ccccc12 (stereo not drawn) [CBK264954]	108
O=C(Nc1cccc(-c2nnn[nH]2)c1)Nc1ccc(Cl)c(Cl)c1 [CBK155454]	96.3
COc1cccc(C(=O)N2CCC(NC(=O)c3ccccc3C(F)(F)F)CC2)c1 [CBK155024]	99.4

Structure (SMILES)	viability at 28.5 h, 10 µM [%]
Cc1cc(C)nc(NC(=O)NS(=O)(=O)Nc2ccccc2Cl)n1 [CBK260912]	102
CC(=O)N1CCc2c(sc(NC(=O)c3ccccc3C)c2C#N)C1 [CBK304681]	78.7
Cn1c(=O)n(CC(=O)O)c(=O)c2c1nc(Br)n2Cc1ccccc1 [CBK026617]	94.8
O=C(O)COc1ccc(/C=N/n2cnnc2)cc1Cl [CBK263902]	99.3
Cc1ccc(S(=O)(=O)N(CC(=O)Nc2ccccc2-c2ccccc2)c2cccc(C)c2)cc1 [CBK265988]	98
Cc1cccc(Cn2c(=O)c3cnc(-c4ccncc4)nc3n(C)c2=O)c1 [CBK288593]	82.8
O=C(Cn1c(C(F)(F)F)nc2ccccc21)NCCN1CCCC1 [CBK267150]	97.8
CSc1ccc(CNCCc2c[nH]c3ccccc23)cc1 [CBK262126]	93.4
COc1cc(CNC(=O)N(CCc2ccccc2)Cc2ccccc2)cc(OC)c1OC [CBK155329]	110
COCCNC(=O)N[C@H](Cc1ccccc1)C(=O)O [CBK286667]	85.5
CCn1cc(-c2cncn2CCCN2CCCCC2)cn1 [CBK281767]	82.9
COc1ccc(Cn2c(C3CCNCC3)cc3cccnc32)cc1 [CBK285077]	96.1
CCCCN(C)c1c(C)nc2ccc(C(=O)N(C)CCCN(C)C)cn12 [CBK146006]	103
CNC(=O)c1cc(NC(=O)NCC2CC(=O)N(CCOC)C2)ccc1F (stereo not drawn) [CBK304403]	107
CN(C)c1ncc(-c2ccc(Cl)cc2)c(C2CCCN2C(=O)CN2CCCC2)n1 (stereo not drawn) [CBK286037]	99.2
Clc1ccc(OCc2nnn[nH]2)c(C2CCCCC2)c1 [CBK270035]	103
COc1nc(NCCN2CCOCC2)nc(Nc2ccc(Cl)cc2)n1 [CBK262541]	102
CCOC(=O)CC(=O)Nc1c(Br)cc(Br)cc1C(=O)O [CBK261412]	95.2
COc1ccccc1-c1nccnc1OCc1cccc(OC)c1OC [CBK106825]	81.2
Cc1nc(N2CCOCC2)[nH]c(=O)c1CCC(=O)Nc1ccccc1F [CBK305003]	97.7
Nc1nc(=O)c2cnc3c(Cl)cccc3c2s1 [CBK291229]	89.5
COc1ccc(-c2nnc(SCCC(=O)O)[nH]2)cc1 [CBK300506]	93.4
O=S1(=O)CCN(Cc2cnn(-c3ccc(OC(F)(F)F)cc3)n2)CC1 [CBK112883]	95.3

Structure (SMILES)	viability at 28.5 h, 10 µM [%]
CCCN1C[C@H](NC(=O)CC)[C@@H](c2ccc(OC)cc2)C1 [CBK282134]	82.3
CC(C)Nc1cc(Sc2ccc(F)cc2)ncn1 [CBK089498]	94.2
COc1ccc(OCc2nn(-c3nc4ccccc4s3)c(N)c2-c2ccccc2)cc1 [CBK266539]	98.5
CC(=O)Nc1ccc(-c2cccc(COC3CCN(C(=O)c4ccc(OC(C)C)cc4)CC3)c2)cc1 [CBK149485]	100
CN(C)c1ccc(C2C(C(=O)c3ccccc3)=C(O)C(=O)N2CCCC(=O)O)cc1 (stereo not drawn) [CBK263393]	96.4
O=C(NC(Cc1ccccc1)C(O)c1nccs1)C1CC=CCC1 (stereo not drawn) [CBK284763]	95.3
Cc1nc(C2CCCN(C(=O)c3ccncc3)C2)c2sccn12 (stereo not drawn) [CBK285199]	90.8
Cc1sc2nc(Cc3ccccc3)n(C3CCN(C(=O)c4ccco4)CC3)c(=O)c2c1C [CBK286317]	97.3
CC(=O)NC[C@H]1CN(c2ccc(-c3nnc(C(C)O)s3)c(F)c2)C(=O)O1 (stereo partly drawn) [CBK017968]	99.6
COc1ccc(-c2nc(NC(=O)CSc3nnc(C)s3)ns2)cc1 [CBK267290]	96.9
Cc1cc(C)n(CC(=O)NC2CCCOc3c(F)cccc32)n1 (stereo not drawn) [CBK305553]	106
Cc1ccc(NC(=O)c2ccc3ccccc3n2)c(C)n1 [CBK200293]	83.2
O=C1/C(=C/c2ccccc2)S/C(=N/N=C/c2ccccc2)N1c1ccc(O)cc1 [CBK262803]	89.6
Cc1cc(C2CCCCCN2C(=O)c2c(C)noc2C)no1 (stereo not drawn) [CBK284845]	85.1
COCCNC(=O)c1sc2ccccc2c1C1CCN(Cc2ccc3ncccc3c2)C1 (stereo not drawn) [CBK285680]	85.2
Brc1n[nH]c2nc(NCc3ccco3)ncc12 [CBK022327]	91.6
Cc1cc2nc(-c3cc(NC(=O)/C=C/c4cccc([N+](=O)[O-])c4)ccc3O)oc2cc1C [CBK263438]	94.1
CCCS(=O)(=O)N1CCC2(CCCN(Cc3cccc(F)c3F)C2=O)C1 (stereo not drawn) [CBK306694]	90.8
Cc1cccc(CN2CCC(NC(=O)Cn3ccccc3=O)CC2)c1 [CBK305667]	111
Brc1cccc(OCc2cccs2)c1 [CBK176011]	99
Cc1ccccc1CN1CCC(O)(c2cccnc2F)CC1 [CBK284376]	96
O=C1Nc2ccccc2C12NN=C(c1ccccc1)S2 (stereo not drawn) [CBK017221]	100
COc1ccccc1N1CCN(C(=O)c2ccccc2C(=O)c2ccccc2)CC1 [CBK091506]	92.9

Structure (SMILES)	viability at 28.5 h, 10 µM [%]
COc1ccc(OCCCCCN2CCC3(CC2)OCCc2c3[nH]c3ccccc23)cc1 [CBK113517T]	0
COc1ccc2c(c1OC)C(=O)N(c1cccc(/C=C/C(=O)O)c1)C2 [CBK109932]	90.3
c1cc(Sc2nccnc2N2CCCC2)ccn1 [CBK093807]	92.3
O=C(CN1CCCCC1)NN(Cc1ccccc1)c1ccccc1 [CBK261521G]	103
CCN(CC)C(=O)c1ccc(NC(=O)CSc2n[nH]c(=O)n2CC2CCCO2)cc1 (stereo not drawn) [CBK295186]	77.6
COC(=O)c1ccsc1NS(=O)(=O)c1cc(Cl)sc1Cl [CBK039062]	88.2
COCc1cccc(Nc2ncnc3c2cnn3CCC#N)c1 [CBK305983]	83.2
CCC(=O)N1CC[C@H]2NC(=O)c3ccccc3OCC/C=C/C[C@H]2C1 [CBK291999]	91.3
Cc1ccc(-c2nccnc2OCc2ccc3c(c2)OCO3)c(C)c1 [CBK106982]	93.1
Cc1cc2nc(NS(C)(=O)=O)n(S(C)(=O)=O)c2cc1C [CBK023112]	106
Cc1ncc(CN(C)C(=O)c2cccc(NC(=O)C3CCCCC3)c2)s1 [CBK306295]	83
CCc1cc(NC[C@@H](O)CO)nc(-c2ccc(F)c(Cl)c2)n1 [CBK132880]	74.4
CCc1nnc(SC(C)C(=O)N2CCCc3ccccc32)[nH]1 (stereo not drawn) [CBK306009]	84.1
CCN1CCN(CCNC(=O)Nc2ccccc2C)CC1 [CBK267842]	108
c1ccc2c(c1)CCN(Cc1ccc3ccccc3c1)C2 [CBK126397]	122
COCC(=O)N[C@H]1C[C@@H](Cc2cc(C(C)(C)C)on2)C1(C)C [CBK289244]	106
CC(C)NC(=O)[C@H]1O[C@H](CCN2CCN(c3ccccc3)CC2)CC[C@@H]1O [CBK288719]	123
CC(=O)N1CCn2nc(C(=O)N(CCO)Cc3ccccc3)cc2C1 [CBK306769]	89.3
COc1ccc(CC(=O)NCC(=O)N2CCC3(CC2)NCCc2nc[nH]c23)cc1 [CBK287997]	110
O=C(Nc1cccnc1)c1cc(C(=O)c2ccc(Cl)cc2Cl)c[nH]1 [CBK107406]	93.7
c1ccc(CCN2CCN(CCC(c3ccccc3)c3ccccc3)CC2)cc1 [CBK126432]	85.4
